Measurements taken from the NIST ThermoML archive (doi:10.1021/je800981d).

Experiments:
[1] = xn = mol fraction of the nth substance listed; settings: 101 kPa, Liquid
[2] = refractive index (Na D-line) (dimensionless); xn = mol fraction of the nth substance listed; settings: 298.15 K, 101 kPa, Liquid, Standard Abbe refractometry
[3] = 101 kPa, Liquid
[4] = refractive index (Na D-line) (dimensionless); settings: 298.15 K; 101.33 kPa; Liquid; Standard Abbe refractometry

CCOS(=O)(=O)[O-].CC[n+]1ccccc1 [1-ethylpyridinium ethyl sulfate] + CCO
[1]
Settings	mass density, 298.15 K [kg/m3]	mass density, 313.15 K [kg/m3]	mass density, 328.15 K [kg/m3]	speed of sound, 298.15 K [m/s]	speed of sound, 313.15 K [m/s]	speed of sound, 328.15 K [m/s]	viscosity, 298.15 K [mPa·s]	viscosity, 313.15 K [mPa·s]	viscosity, 328.15 K [mPa·s]
x2 = 0	1252	1242.1	1232.3	1711	1676	1641	126.3	57.6	38.6
x2 = 0.0476	1245.3	1235.3	1225.3	1700	1665	1631	103.3	50.3	34.14
x2 = 0.1993	1220.8	1210.8	1200.7	1661	1625	1591	58.4	33.9	22.38
x2 = 0.2992	1201.2	1190.9	1180.7	1630	1593	1558	40.3	23.51	15.2
x2 = 0.5009	1147.2	1136.4	1125.9	1546	1508	1472	17.27	11.39	8.015
x2 = 0.6033	1109.2	1098.4	1087.7	1491	1453	1388	10.79	7.07	5.198
x2 = 0.7023	1062	1051	1039.9	1428	1388	1350	6.63	4.8	3.642
x2 = 0.8016	999.9	988.1	976.6	1349	1308	1267	3.947	2.943	2.287
x2 = 0.899	915.5	903.3	890.1	1258	1214	1170	2.244	1.717	1.344
x2 = 0.9476	860.1	847.5	834.1	1206	1160	1113	1.641	1.261	0.987

[2]
Settings	refractive index
x2 = 0	1.50252
x2 = 0.0476	1.50313
x2 = 0.1993	1.49585
x2 = 0.2992	1.48987
x2 = 0.5009	1.47321
x2 = 0.6033	1.46152
x2 = 0.7023	1.44693
x2 = 0.8016	1.42734
x2 = 0.899	1.40078
x2 = 0.9476	1.38342

CCO [ethanol]
[3]
Settings	mass density [kg/m3]	speed of sound [m/s]	viscosity [mPa·s]
298.15 K	785.5	1146	1.082
313.15 K	772	1093	0.827
328.15 K	758.6	1043	0.641

Settings	refractive index
[4]	1.36023

CCO [ethanol] + CCOS(=O)(=O)[O-].CC[n+]1ccccc1
[1], x1 = 1
Settings	mass density [kg/m3]	speed of sound [m/s]	viscosity [mPa·s]
298.15 K	785.5	1146	1.082
313.15 K	772	1093	0.827
328.15 K	758.6	1043	0.641

Settings	refractive index
[2], x1 = 1	1.36023

CCCO [propan-1-ol]
[3]
Settings	mass density [kg/m3]	speed of sound [m/s]	viscosity [mPa·s]
298.15 K	799.6	1207	2.017
313.15 K	787.4	1155	1.43
328.15 K	774.8	1105	1.041

Settings	refractive index
[4]	1.3831

CCCO [propan-1-ol] + CCOS(=O)(=O)[O-].CC[n+]1ccccc1
[1], x1 = 1
Settings	mass density [kg/m3]	speed of sound [m/s]	viscosity [mPa·s]
298.15 K	799.6	1207	2.017
313.15 K	787.4	1155	1.43
328.15 K	774.8	1105	1.041

Settings	refractive index
[2], x1 = 1	1.3831
